# Structures can show the parent of a compound that is named as a salt. Where two headings read alike, the source gives them in different places.
# Key:
# [1] = tested on: substance P-induced scratching behavior; test: Inhibitory effect on substance P-induced scratching behavior in mice (MicroAct automatic detection); assay type: in vivo, mouse; conditions: for Number of scratching behavior (means ± standard error): counted for 15 minutes
# Source text: Substance P-induced scratching behavior in mice which is an intractable pruritus model was induced by the method described in a known document (Togashi et al., European Journal of Pharmacology, 2002, Vol. 435, p. 259 and the like). Further, evaluation of the scratching behavior was objectively carried out by automatic detection using MicroAct (NeuroScience, Inc.) based on the method described in a known document (Hashimoto et al., Allergology International, 2004, Vol. 53, p. 349).
# More particularly, at least five days before the evaluation of drug effect, neodymium magnets (diameter: 1 mm, length: 3 mm) coated with Parafilm were subcutaneously inserted into the insteps of both hind limbs of 5 to 7 week-old male ICR mouse (Japan SLC, Inc.) under isoflurane anesthesia. One or two days before the day of the evaluation of drug effect, the hair of the rostral part of the back of the mouse was shaved with a hair clipper under isoflurane anesthesia. At least one hour before the start of the measurement of the number of scratching behavior, each mouse (6 to 8 weeks old) was individually placed in a chamber for measurement (diameter: 11 cm, height: 18 cm) for acclimation. After the acclimation, substance P (5 mmol/L) or phosphate-buffered saline (hereinafter referred to as PBS) as a solvent thereof was intradermally administered (0.05 mL/site) into the rostral part of the back, and the measurement of the number of scratching behavior was started immediately after the administration. The number of scratching behavior was recorded by amplifying electric current induced by the movement of the magnets inserted in the hind limbs in a round coil surrounding the chamber for measurement. The measurement was carried out under unattended environment, and the evaluation of the drug effect was carried out by using the number of scratching behavior occurred for 15 minutes after the start of the measurement as an index.
# A test compound or a solvent thereof was administered in an amount of 10 mL/kg 30 to 60 minutes before the start of the measurement of the number of scratching behavior. Varenicline tartrate (Tocris Bioscience) was dissolved in PBS and intraperitoneally administered in a dose of 1, 3 or 10 mg/kg 60 minutes before the start of the measurement of the number of scratching behavior. N-(1-azabicyclo[2.2.2]oct-3(R)-yl)-4-chlorobenzamide hydrochloride (PNU-282987) hydrate (Sigma-Aldrich) was dissolved in PBS and intraperitoneally administered in a dose of 0.3 or 1 mg/kg 45 minutes before the start of the measurement of the number of scratching behavior. The compound of Reference Example 1 was dissolved in PBS and intraperitoneally administered in a dose of 0.1 or 0.3 mg/kg 30 minutes before the start of the measurement of the number of scratching behavior. The compound of Reference Example 2 was dissolved in PBS and intraperitoneally administered in a dose of 1, 3, or 10 mg/kg 45 minutes before the start of the measurement of the number of scratching behavior. The compound of Reference Example 3 was dissolved in distilled water and orally administered in a dose of 1, 3, or 10 mg/kg 30 minutes before the start of the measurement of the number of scratching behavior. The compound of Reference Example 4 was dissolved in PBS and intraperitoneally administered in a dose of 1, 3, or 10 mg/kg 45 minutes before the start of the measurement of the number of scratching behavior. The compound of Reference Example 5 was dissolved in PBS and intraperitoneally administered in a dose of 1, 3, or 10 mg/kg 30 minutes before the start of the measurement of the number of scratching behavior. The compound of Reference Example 6 was dissolved in PBS and intraperitoneally administered in a dose of 1, 3, or 10 mg/kg, 30 minutes before the start of the measurement of the number of scratching behavior. […]
# [2] = tested on: substance P-induced scratching behavior; conditions: literature; cited from earlier work
# [3] = Mus musculus, ip, read-out: Inhibition rate
# [4] = i.p., 0.3 mg/kg, substance P 250 nmol/site
# [5] = i.p., 1 mg/kg, substance P 250 nmol/site
# [6] = Mus musculus, ip, 0.1 mg/kg, substance P 250 nmol/site, read-out: Inhibition rate
# [7] = Mus musculus, ip, 0.3 mg/kg, substance P 250 nmol/site, read-out: Inhibition rate
# [8] = i.p., 0.1 mg/kg, substance P 250 nmol/site
# [9] = Mus musculus, ip, 1 mg/kg, substance P 250 nmol/site, read-out: Inhibition rate
# [10] = Mus musculus, ip, 3 mg/kg, substance P 250 nmol/site, read-out: Inhibition rate
# [11] = Mus musculus, ip, 10 mg/kg, substance P 250 nmol/site, read-out: Inhibition rate
# [12] = i.p., 3 mg/kg, substance P 250 nmol/site
# [13] = i.p., 10 mg/kg, substance P 250 nmol/site
# [14] = p.o., 10 mg/kg, substance P 250 nmol/site
# [15] = Mus musculus, po, read-out: Inhibition rate
structure (smiles),measurement,setting,value
"Cl.O=C(N[C@H]1CN2CCC1CC2)c1ccc(Cl)cc1 [PNU-282987 hydrate, N-(1-azabicyclo[2.2.2]oct-3(R)-yl)-4-chlorobenzamide hydrochloride, reference compound]",inhibition at 0.3 mg/kg,[1]; [3],42%
same,inhibition at 1 mg/kg,[1]; [3],72%
same,Number of scratching behavior (means ± standard error),[1]; [4],81 ± 9
same,Number of scratching behavior (means ± standard error),[1]; [5],48 ± 8
"Cl.Clc1ccc(OC[C@H]2CCN2)cn1 [Reference Example 1, (R)-2-Chloro-5-(2-azetidinylmethoxy)pyridine hydrochloride]",inhibition at 0.1 mg/kg,[1]; [6],107%
same,inhibition at 0.3 mg/kg,[1]; [7],121%
same,Number of scratching behavior (means ± standard error),[1]; [8],21 ± 8
same,Number of scratching behavior (means ± standard error),[1]; [4],6 ± 2
"O=C(N[C@@H]1C2CCN(CC2)[C@H]1Cc1cccnc1)c1cc2ccccc2o1 [Reference Example 2, N-(2(S)-(Pyridin-3-ylmethyl)-1-azabicyclo[2.2.2]oct-3(R)-yl)-1-benzofuran-2-carboxamide]",inhibition at 1 mg/kg,[1]; [9],71%
same,inhibition at 3 mg/kg,[1]; [10],38%
same,inhibition at 10 mg/kg,[1]; [11],62%
same,Number of scratching behavior (means ± standard error),[1]; [5],67 ± 10
same,Number of scratching behavior (means ± standard error),[1]; [12],97 ± 14
same,Number of scratching behavior (means ± standard error),[1]; [13],75 ± 8
"Cl.O=C(N[C@H]1CN2CCC1CC2)c1cc2cccc(Cl)c2s1 [Reference Example 3, (R)-7-Chloro-N-(quinuclidin-3-yl)benzo[b]thiophene-2-carboxamide hydrochloride]",inhibition at 1 mg/kg,"[1]; Mus musculus, po, 1 mg/kg, substance P 250 nmol/site, read-out: Inhibition rate",32%
same,inhibition at 3 mg/kg,"[1]; Mus musculus, po, 3 mg/kg, substance P 250 nmol/site, read-out: Inhibition rate",51%
same,inhibition at 10 mg/kg,"[1]; Mus musculus, po, 10 mg/kg, substance P 250 nmol/site, read-out: Inhibition rate",79%
same,Number of scratching behavior (means ± standard error),"[1]; p.o., 1 mg/kg, substance P 250 nmol/site",71 ± 14
same,Number of scratching behavior (means ± standard error),"[1]; p.o., 3 mg/kg, substance P 250 nmol/site",57 ± 13
same,Number of scratching behavior (means ± standard error),[1]; [14],36 ± 8
"Cl.O=C(Oc1ccc(Br)cc1)N1CCN2CCC1CC2 [Reference Example 4, 1,4-Diazabicyclo[3.2.2]nonane-4-carboxylic acid 4-bromophenyl ester hydrochloride]",inhibition at 1 mg/kg,[1]; [3],32%
same,inhibition at 3 mg/kg,[1]; [3],63%
same,inhibition at 10 mg/kg,[1]; [3],80%
same,Number of scratching behavior (means ± standard error),[1]; [5],89 ± 12
same,Number of scratching behavior (means ± standard error),[1]; [12],59 ± 14
same,Number of scratching behavior (means ± standard error),[1]; [13],42 ± 6
"Cc1ccc2oc(N3CCN4CCC3CC4)nc2n1.Cl [Reference Example 5, 2-(1,4-Diazabicyclo[3.2.2]non-4-yl)-5-methyloxazolo[4,5-b]pyridine hydrochloride]",inhibition at 1 mg/kg,[1]; [9],25%
same,inhibition at 3 mg/kg,[1]; [10],46%
same,inhibition at 10 mg/kg,[1]; [11],59%
same,Number of scratching behavior (means ± standard error),[1]; [5],82 ± 6
same,Number of scratching behavior (means ± standard error),[1]; [12],62 ± 11
same,Number of scratching behavior (means ± standard error),[1]; [13],50 ± 12
"Cl.O=C(CCCCN1CCOCC1)Nc1ccc(-c2cccnc2)cc1 [Reference Example 6, 5-(4-Morpholinyl)-N-(4-(3-pyridyl)phenyl)pentanamide hydrochloride]",inhibition at 1 mg/kg,[1]; [9],32%
same,inhibition at 3 mg/kg,[1]; [10],52%
same,inhibition at 10 mg/kg,[1]; [11],104%
same,Number of scratching behavior (means ± standard error),[1]; [5],94 ± 15
same,Number of scratching behavior (means ± standard error),[1]; [12],78 ± 10
same,Number of scratching behavior (means ± standard error),[1]; [13],36 ± 5
"CN1C[C@@H]2CN(c3ccc(-c4ccccc4)nn3)C[C@@H]2C1 [Reference Example 7, cis-2-methyl-5-(6-phenylpyridazin-3-yl)perhydropyrrolo[3,4-c]pyrrole fumarate]",inhibition at 0.3 mg/kg,[1]; [3],25%
same,inhibition at 1 mg/kg,[1]; [3],79%
same,inhibition at 3 mg/kg,[1]; [3],66%
same,Number of scratching behavior (means ± standard error),[1]; [4],101 ± 20
same,Number of scratching behavior (means ± standard error),[1]; [5],37 ± 8
same,Number of scratching behavior (means ± standard error),[1]; [12],52 ± 9
"C[C@H](OC(=O)N[C@@H]1CN2CCC1CC2)c1ccccc1F [Reference Example 8, (S)-1-(2-fluorophenyl)ethyl(S)-quinuclidin-3-ylcarbamate]",inhibition at 10 mg/kg,[1]; [15],41%
same,inhibition at 30 mg/kg,[1]; [15],49%
same,Number of scratching behavior (means ± standard error),[1]; [14],92 ± 17
same,Number of scratching behavior (means ± standard error),"[1]; p.o., 30 mg/kg, substance P 250 nmol/site",83 ± 19
"O=C(N[C@H]1CN2CCC1CC2)c1cc2ccoc2cn1 [Reference Example 9, N-(1-Azabicyclo[2.2.2]oct-3(R)-yl)furo[2,3-c]pyridine-5-carboxamide dihydrochloride]",inhibition at 0.1 mg/kg,[1]; [6],10%
same,inhibition at 0.3 mg/kg,[1]; [7],43%
same,inhibition at 1 mg/kg,[1]; [9],70%
same,Number of scratching behavior (means ± standard error),[1]; [8],109 ± 21
same,Number of scratching behavior (means ± standard error),[1]; [4],76 ± 18
same,Number of scratching behavior (means ± standard error),[1]; [5],50 ± 10
"Cl.O=C(N[C@H]1CN2CCC1CC2)c1ccc2c(c1)OCCO2 [Reference Example 10, N-(1-Azabicyclo[2.2.2]oct-3(R)-yl)-2,3-dihydro-1,4-benzodioxin-6-carboxamide hydrochloride]",inhibition at 0.1 mg/kg,[1]; [3],3%
same,inhibition at 0.3 mg/kg,[1]; [3],17%
same,inhibition at 1 mg/kg,[1]; [3],58%
same,Number of scratching behavior (means ± standard error),[1]; [8],131 ± 18
same,Number of scratching behavior (means ± standard error),[1]; [4],115 ± 19
same,Number of scratching behavior (means ± standard error),[1]; [5],69 ± 10
O=C(O)Cc1ccccc1Nc1c(Cl)cccc1Cl [diclofenac],Inhibition of substance P-induced scratching behavior in mice (in words),[2],not inhibited
COc1ccc2c(c1)c(CC(=O)O)c(C)n2C(=O)c1ccc(Cl)cc1 [indomethacin],Inhibition of substance P-induced scratching behavior in mice (in words),[2],not inhibited
C=CC[C@@H]1/C=C(\C)C[C@H](C)C[C@H](OC)[C@H]2O[C@@](O)(C(=O)C(=O)N3CCCC[C@H]3C(=O)O[C@H](/C(C)=C/[C@@H]3CC[C@@H](O)[C@H](OC)C3)[C@H](C)[C@@H](O)CC1=O)[C@H](C)C[C@@H]2OC [tacrolimus],Inhibition of substance P-induced scratching behavior in mice (in words),[2],not inhibited

# From patent US20140128606A1, “ANTIPRURITIC AGENT” (Toray Industries, Inc., priority 2011, published 2014)
